The source of these data is patent publication US20030198636A1, “Process for inhibiting complement activation via the alternative pathway” (priority 1997, published 2003).

In general, IC50 refers to the midpoint of a concentration-inhibition curve.

Residues, ends and D or L forms follow the SMILES beside them. No end group written: not given here.

For assay [1], the system named is Fcγ receptors on neutrophils. The experiment in a line: Chemiluminescence assay for superoxide production in diluted whole blood. Type of assay: cell-based. The conditions noted are these: 5 μg/ml properdin alone. The text has this: Such agents may be screened for their ability to activate Fcγ receptors by a variety of assays known in the art. Since superoxide generation is one of the classic responses of neutrophils and other phagocytes to activation via Fcγ receptors (RII), a specific assay for superoxide release from cells in diluted whole blood was utilized to screen and evaluate agents and the possible role of Fcγ receptors in neutrophil activation by such an agent. Monoclonal antibody agents are generally ineffective aggregating agents upon binding to their antigen and thus ineffective to activate Fcγ receptors via immune complex formation. However, Fcγ activation was detected for a blocking anti-properdin monoclonal antibody as follows.
A chemiluminescence assay for superoxide production in diluted whole blood was performed (Tose, M. F. and A. Itamedani, 1992, Am. J. Clin. Pathol. 97:566-573). Fresh blood was collected by a finger prick and rapidly diluted 350-fold into phenol red-free RPMI-1640 media containing Pen-Strep which was buffered with 10 mM HEPES (pH 7.4) at 37° C. The media also contains 10 μM lucigenin (Sigma Chemical Co.), a compound which becomes chemiluminescent when reduced by superoxide. […] At regular intervals, chemiluminescence was monitored by transferring each sample into a liquid scintillation counter (Packard Model 1900 TR) operated in a single photon mode to determine the “cpm”.

For the next assay, the target named is T1, human C3b (Homo sapiens, UniProt P01024).
T1 construct: The resulting convertase proteolytically modifies C3, producing the C3b fragment; purchased Calbiochem, San Diego, Calif; 204860
Briefly: C3b-properdin binding ELISA (properdin titration on immobilized C3b). The conditions noted are these: FIG. 1, read-out: apparent binding constant (concentration of properdin needed to reach half-maximal binding to C3b). The method, then:
Polystyrene microtiter plates were coated with human C3b (0.5 μg/50 μl per well) (Calbiochem, San Diego, Calif., Cat. No. 204860) in Veronal buffered saline (VBS): (5 mM diethyl barbiturate, 120 mM NaCl, 5 mM MgCl2, 5 mM EGTA) overnight at 4° C. After aspirating the C3b solution, wells were blocked with VBS containing 0.5% human serum albumin (HSA) (Sigma Chemical Company, St. Louis, Mo., Cat. No. A9511) for 2 hours at room temperature. Wells without C3b coating served as background controls. Aliquots of human properdin (or factor P) (Advanced Research Technology, San Diego, Calif., Cat. No. A139) at varying concentrations in blocking solution were added to the wells. Following a 2 hour incubation at room temperature, the wells were extensively rinsed with VBS.
C3b-bound properdin was detected by the addition of mouse monoclonal anti-human properdin antibody (detection antibody) (Quidel, San Diego, Calif., anti-human properdin monoclonal antibody P#2, Cat. No. A235) at 1:1000 dilution in blocking solution, which was allowed to incubate for 1 hour at room temperature. […] After incubation for 10 minutes at 25° C., the reaction of TMB was quenched by the addition of 100 μl of phosphoric acid, and the plate was read at 450 nm in a microplate reader (e.g., SPECTRA MAX 250, Molecular Devices, Sunnyvale, Calif.). […]
(In general: In an ELISA, binding on a coated surface is turned into a signal by an enzyme label.)

Assay [2] concerns the target T2, binding of properdin to C3b coated plates (Homo sapiens, UniProt P01024).
T2 construct: The resulting convertase proteolytically modifies C3, producing the C3b fragment
The conditions noted are these: peptides at 0-200 μg/ml; cited from earlier work.

Assay [3] has as its system C5b-9 membrane-attack complex (MAC) formation via the alternative pathway. The experiment in a line: Alternative pathway-dependent MAC assay on LPS-coated wells (ELISA). Type of assay: biochemical, human. The conditions noted are these: peptides; ELISA as described in Example 3; read-out: IC50, inhibition of MAC formation. The text has this:
The binding data of Examples 1 and 2 above reveal that the properdin monoclonal antibody prevents the binding of properdin to C3b and the functional C3 convertase (C3bBb). […] The final end product of this pathway is the C5b-9 membrane-attack complex (MAC). To analyze the effects of the properdin antibody on MAC formation via the alternative pathways, an assay was utilized in which bacterial LPS was used as a substrate to initiate the alternative complement pathway cascade.
Microtiter wells were coated with LPS (2 μg/50 μl per well) in VBS overnight at 4° C. Uncoated wells served as background controls. After aspirating the LPS solution, wells were treated with blocking solution and incubated with various concentrations of normal human serum. Following a 3 hour incubation at 37° C., deposited MAC was detected with mouse anti-human soluble C5b-9 monoclonal antibody (Quidel, Cat. No. A239) using standard ELISA methodologies essentially as described in the Examples above. The effect of the blocking antibody on the MAC formation was evaluated by adding various concentrations of blocking antibody to a fixed concentration of serum (4% in blocking solution). The amount of inhibition of soluble C5b-9 formation was determined using the antibody detection system described in the Examples above.

In assay [4] the target is T3, properdin binding to C3bBb (Homo sapiens, UniProt P01024+P27918).
T3 construct: The resulting convertase proteolytically modifies C3, producing the C3b fragment; tissue Sigma Chemical Company (serum)
The experiment in a line: C3b(Bb)-properdin binding inhibition in human serum (ELISA). The conditions noted are these: peptides; tested as described in Example 2; read-out: IC50, blocking of C3bBb binding. The method, then: This assay was carried out as described in Example 1 above with some changes. Briefly, microtiter wells were coated with C3b, washed, blocked and incubated with various concentrations of normal human serum (NHS) (Sigma Chemical Company, Cat. No. S1764) diluted in blocking solution for 2 hours at room temperature. Under the conditions of this binding assay, factor B in serum will bind solid phase-bound C3b and, after cleavage by factor D in serum, generates C3bBb. Properdin is known to bind C3bBb with high affinity (Farries, T. C., P. J. Lachmann, and R. A. Harrison, 1988, Biochem. 252:47-54). Uncoated wells served as background controls. After washing, bound-properdin was detected with the anti-properdin antibody as described in Example 1 above.
To evaluate the effect of the blocking antibody to inhibit properdin binding to C3b(Bb), various concentrations of the blocking antibody described in Example 1 above were added to a fixed concentrations of serum (4% in blocking solution). The amount of properdin bound to C3b(Bb) was detected using the detection system described in Example 1 above.

Consider “human properdin: human properdin (or factor P), Advanced Research Technology Cat. No. A139”, for which the “superoxide levels over control levels” value in assay [1] is “not significantly elevated”. Besides, the Kd in the assay with human C3b was roughly 0.001 µM.
`CC(=O)NCC(=O)N[C@@H](CC(C)C)C(=O)N[C@@H](CS)C(=O)N[C@@H](CCC(N)=O)C(=O)N1CCC[C@H]1C(=O)N[C@@H](CS)C(=O)N[C@@H](CCCNC(=N)N)C(=O)N[C@@H](CO)C(=O)N1CCC[C@H]1C(=O)N[C@@H](CCCNC(=N)N)C(=O)O` [Peptide 1] (Ac-GLCQPCRSPR-OH; N-terminus and C-terminus assumed): in assay [2], the “compete with properdin for C3 binding” value is “compete”. The IC50 in assay [3] was 268 µM; in assay [4], 400 to 600 µM.
With “Ac-CRSPRWSLWS (N-terminus assumed) [peptide 2]”, the “compete with properdin for C3 binding” value in assay [2] is recorded as “compete”. Moreover, the results for the IC50 in assay [3] and in assay [4] were 335 µM and 400 to 600 µM, respectively.
Turning to “Ac-RYRRCVGWNG (N-terminus assumed) [peptide 3]”, the “compete with properdin for C3 binding” value in assay [2] is recorded as “compete”. Moreover, the IC50 in assay [3] was 242 µM; in assay [4], 400 to 600 µM.
